Legend:
[1] = molecular target: Serine/threonine-protein kinase SIK3 (Homo sapiens) (UniProt Q9Y2K2); assay: Inhibition of QSK (unknown origin) assessed as remaining activity at 1 uM by Kinome scan method relative to control
[2] = molecular target: Platelet-derived growth factor receptor beta (Homo sapiens) (UniProt P09619); assay: Inhibition of human PDGFRbeta assessed as residual activity at 1 uM using poly(Ala,Glu,Lys,Tyr) as substrate in presence of 33P-ATP by ProQinase assay relative to control
[3] = molecular target: Mitogen-activated protein kinase 9 (Homo sapiens) (UniProt P45984); assay: Inhibition of JNK2 (unknown origin) assessed as remaining activity at 1 uM by Kinome scan method relative to control
Sequence of Mitogen-activated protein kinase 9 (Homo sapiens) (P45984 whole entry, looked up): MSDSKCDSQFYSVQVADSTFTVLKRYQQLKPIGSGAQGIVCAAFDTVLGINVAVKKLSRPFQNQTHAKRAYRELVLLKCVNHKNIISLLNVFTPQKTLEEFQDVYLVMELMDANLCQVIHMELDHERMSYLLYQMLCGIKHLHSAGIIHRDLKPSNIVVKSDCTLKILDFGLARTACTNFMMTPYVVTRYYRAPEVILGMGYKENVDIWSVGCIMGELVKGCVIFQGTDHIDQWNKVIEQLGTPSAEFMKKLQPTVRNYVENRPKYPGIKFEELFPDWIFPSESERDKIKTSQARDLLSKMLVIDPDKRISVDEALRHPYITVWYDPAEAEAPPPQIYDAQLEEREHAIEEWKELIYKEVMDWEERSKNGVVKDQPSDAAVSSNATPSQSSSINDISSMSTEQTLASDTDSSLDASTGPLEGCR

[4] = molecular target: Calcium/calmodulin-dependent protein kinase type II subunit alpha (Homo sapiens) (UniProt Q9UQM7); assay: Inhibition of human CAMK2A assessed as residual activity at 1 uM using RBER-CHKtide as substrate in presence of 33P-ATP by ProQinase assay relative to control
[5] = test system: Tyrosine-protein kinase ABL1 (Homo sapiens), P00519 [M351T]; assay: Inhibition of human ABL1 M351T mutant assessed as residual activity at 1 uM using Poly(Ala,Glu,Lys,Tyr)6:2:5:1 as substrate in presence of 33P-ATP by ProQinase assay relative to control
[6] = molecular target: Dual specificity tyrosine-phosphorylation-regulated kinase 1B (Homo sapiens) (UniProt Q9Y463); assay: Inhibition of human DYRK1B assessed as residual activity at 1 uM using RBER-CHKtide as substrate in presence of 33P-ATP by ProQinase assay relative to control
[7] = molecular target: Ribosomal protein S6 kinase alpha-2 (Homo sapiens) (UniProt Q15349); assay: Inhibition of C-terminal kinase domain RPS6KA2 (unknown origin) assessed as remaining activity at 1 uM by Kinome scan method relative to control
[8] = molecular target: Ephrin type-A receptor 6 (Homo sapiens) (UniProt Q9UF33); assay: Inhibition of EPHA6 (unknown origin) assessed as remaining activity at 1 uM by Kinome scan method relative to control
Sequence of Ephrin type-A receptor 6 (Homo sapiens) (Q9UF33 whole entry): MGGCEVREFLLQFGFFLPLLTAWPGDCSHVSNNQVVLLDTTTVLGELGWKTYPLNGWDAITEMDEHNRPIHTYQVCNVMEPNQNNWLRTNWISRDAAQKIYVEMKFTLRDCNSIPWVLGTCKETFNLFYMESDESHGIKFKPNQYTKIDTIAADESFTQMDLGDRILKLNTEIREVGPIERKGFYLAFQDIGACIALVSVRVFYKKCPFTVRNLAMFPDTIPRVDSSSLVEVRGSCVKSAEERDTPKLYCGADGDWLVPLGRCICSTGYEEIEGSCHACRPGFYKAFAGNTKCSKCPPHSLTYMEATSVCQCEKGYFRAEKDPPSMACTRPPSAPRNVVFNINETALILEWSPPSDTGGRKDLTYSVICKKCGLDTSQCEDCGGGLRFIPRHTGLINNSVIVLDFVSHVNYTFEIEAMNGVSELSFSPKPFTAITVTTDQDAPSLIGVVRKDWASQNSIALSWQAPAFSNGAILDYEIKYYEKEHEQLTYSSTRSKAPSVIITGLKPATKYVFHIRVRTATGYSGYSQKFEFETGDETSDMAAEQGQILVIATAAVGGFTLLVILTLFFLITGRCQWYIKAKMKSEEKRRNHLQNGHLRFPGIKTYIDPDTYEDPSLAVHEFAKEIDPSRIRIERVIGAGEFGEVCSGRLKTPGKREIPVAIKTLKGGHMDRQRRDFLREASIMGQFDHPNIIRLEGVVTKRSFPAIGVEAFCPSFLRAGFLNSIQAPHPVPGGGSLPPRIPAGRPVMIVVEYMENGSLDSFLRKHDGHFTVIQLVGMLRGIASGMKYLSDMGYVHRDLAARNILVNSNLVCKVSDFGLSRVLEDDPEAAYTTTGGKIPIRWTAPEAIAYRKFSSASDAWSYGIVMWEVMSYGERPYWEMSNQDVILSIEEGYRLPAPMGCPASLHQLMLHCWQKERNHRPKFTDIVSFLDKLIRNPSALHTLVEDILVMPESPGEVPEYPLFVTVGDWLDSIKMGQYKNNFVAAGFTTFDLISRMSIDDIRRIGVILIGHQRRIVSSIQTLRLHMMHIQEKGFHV

[9] = Anti-inflammatory activity against human derived high respond PBMC cells assessed as inhibition in stimulated IL-1alpha cytokine release incubated for 2 hrs in the presence of LPS/SEB/aCD28 by Luminex based sandwich immunoassay; assay type: functional, cell-based
[10] = molecular target: Calcium/calmodulin-dependent protein kinase type II subunit delta (Homo sapiens) (UniProt Q13557); assay: Inhibition of CAMK2D (unknown origin) assessed as remaining activity at 1 uM by Kinome scan method relative to control
[11] = molecular target: Tyrosine-protein kinase ZAP-70 (Homo sapiens) (UniProt P43403); assay: Inhibition of ZAP70 (unknown origin) assessed as remaining activity at 1 uM by Kinome scan method relative to control
Sequence of Tyrosine-protein kinase ZAP-70 (Homo sapiens) (P43403 whole entry, canonical isoform): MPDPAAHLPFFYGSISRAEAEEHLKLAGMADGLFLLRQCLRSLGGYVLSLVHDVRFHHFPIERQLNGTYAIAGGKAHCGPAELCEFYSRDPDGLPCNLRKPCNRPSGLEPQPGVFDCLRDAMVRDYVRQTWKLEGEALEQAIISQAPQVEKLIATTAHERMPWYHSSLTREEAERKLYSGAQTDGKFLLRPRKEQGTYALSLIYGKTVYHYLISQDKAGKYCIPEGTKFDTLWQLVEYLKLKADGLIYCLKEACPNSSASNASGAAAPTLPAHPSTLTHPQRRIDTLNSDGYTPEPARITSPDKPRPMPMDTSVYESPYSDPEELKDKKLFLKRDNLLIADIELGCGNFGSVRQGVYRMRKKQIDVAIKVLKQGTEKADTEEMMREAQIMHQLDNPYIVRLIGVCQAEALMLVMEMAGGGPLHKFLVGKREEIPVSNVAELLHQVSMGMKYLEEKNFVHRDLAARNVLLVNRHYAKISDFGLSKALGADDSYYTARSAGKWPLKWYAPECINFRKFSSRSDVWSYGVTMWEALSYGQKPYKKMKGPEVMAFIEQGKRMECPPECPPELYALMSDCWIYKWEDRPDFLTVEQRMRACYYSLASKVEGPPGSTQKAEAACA

[12] = molecular target: Casein kinase I isoform gamma-2 (Homo sapiens) (UniProt P78368); assay: Inhibition of CSNK1G2 (unknown origin) assessed as remaining activity at 1 uM by Kinome scan method relative to control
Sequence of Casein kinase I isoform gamma-2 (Homo sapiens) (P78368 whole entry, looked up, canonical isoform): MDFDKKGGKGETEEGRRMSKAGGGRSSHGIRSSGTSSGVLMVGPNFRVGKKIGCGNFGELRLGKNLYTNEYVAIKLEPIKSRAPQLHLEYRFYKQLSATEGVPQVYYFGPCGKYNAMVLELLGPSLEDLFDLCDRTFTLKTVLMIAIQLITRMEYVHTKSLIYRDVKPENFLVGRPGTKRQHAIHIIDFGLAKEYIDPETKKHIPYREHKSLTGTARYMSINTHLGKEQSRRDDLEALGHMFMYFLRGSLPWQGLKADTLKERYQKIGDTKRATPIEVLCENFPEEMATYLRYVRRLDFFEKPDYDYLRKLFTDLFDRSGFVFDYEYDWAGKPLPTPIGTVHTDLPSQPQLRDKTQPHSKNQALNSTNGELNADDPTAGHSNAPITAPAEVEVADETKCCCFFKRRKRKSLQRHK

[13] = molecular target: Misshapen-like kinase 1 (Homo sapiens) (UniProt Q8N4C8); assay: Inhibition of human MINK1 assessed as residual activity at 1 uM using RBER-CHKtide as substrate in presence of 33P-ATP by ProQinase assay relative to control
[14] = molecular target: Protein kinase C gamma type (Homo sapiens) (UniProt P05129); assay: Inhibition of human PKCgamma assessed as residual activity at 1 uM using 3xChocktide-PKC(19-31) as substrate in presence of 33P-ATP by ProQinase assay relative to control
[15] = molecular target: T1, Tyrosine-protein kinase ITK/TSK (Homo sapiens) (UniProt Q08881); assay: Inhibition of human ITK assessed as residual activity at 1 uM using polyEY as substrate in presence of 33P-ATP by ProQinase assay relative to control
T1 sequence (whole entry): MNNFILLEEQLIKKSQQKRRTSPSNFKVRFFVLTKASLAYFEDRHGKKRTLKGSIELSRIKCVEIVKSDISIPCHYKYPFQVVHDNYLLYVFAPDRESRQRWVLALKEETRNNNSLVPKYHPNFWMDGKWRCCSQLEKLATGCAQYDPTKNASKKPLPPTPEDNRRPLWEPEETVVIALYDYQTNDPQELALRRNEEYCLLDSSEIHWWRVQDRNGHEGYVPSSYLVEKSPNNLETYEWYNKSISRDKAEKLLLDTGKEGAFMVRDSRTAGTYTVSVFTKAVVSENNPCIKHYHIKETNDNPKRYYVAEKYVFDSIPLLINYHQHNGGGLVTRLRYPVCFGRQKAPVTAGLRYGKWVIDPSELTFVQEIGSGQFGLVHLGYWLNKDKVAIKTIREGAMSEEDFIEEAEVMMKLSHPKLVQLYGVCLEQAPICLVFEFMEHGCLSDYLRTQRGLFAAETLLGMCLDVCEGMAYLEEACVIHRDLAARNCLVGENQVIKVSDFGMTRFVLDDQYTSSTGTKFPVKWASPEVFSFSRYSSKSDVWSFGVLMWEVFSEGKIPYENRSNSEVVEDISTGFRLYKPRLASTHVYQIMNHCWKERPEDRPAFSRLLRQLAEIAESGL

[16] = molecular target: STE20-like serine/threonine-protein kinase (Homo sapiens) (UniProt Q9H2G2); assay: Inhibition of SLK (unknown origin) assessed as remaining activity at 1 uM by Kinome scan method relative to control
[17] = molecular target: Tyrosine-protein kinase receptor UFO (Homo sapiens) (UniProt P30530); assay: Inhibition of AXL (unknown origin) assessed as remaining activity at 1 uM by Kinome scan method relative to control
[18] = Anti-inflammatory activity against human derived high respond PBMC cells assessed as inhibition in stimulated TARC chemokine release incubated for 2 hrs in the presence of LPS/SEB/aCD28 by Luminex based sandwich immunoassay; assay type: functional, cell-based
[19] = molecular target: cAMP-dependent protein kinase catalytic subunit PRKX (Homo sapiens) (UniProt P51817); assay: Inhibition of human PRKX assessed as residual activity at 1 uM using RBER-GSK3(14-27) as substrate in presence of 33P-ATP by ProQinase assay relative to control
Sequence of cAMP-dependent protein kinase catalytic subunit PRKX (Homo sapiens) (P51817 whole entry): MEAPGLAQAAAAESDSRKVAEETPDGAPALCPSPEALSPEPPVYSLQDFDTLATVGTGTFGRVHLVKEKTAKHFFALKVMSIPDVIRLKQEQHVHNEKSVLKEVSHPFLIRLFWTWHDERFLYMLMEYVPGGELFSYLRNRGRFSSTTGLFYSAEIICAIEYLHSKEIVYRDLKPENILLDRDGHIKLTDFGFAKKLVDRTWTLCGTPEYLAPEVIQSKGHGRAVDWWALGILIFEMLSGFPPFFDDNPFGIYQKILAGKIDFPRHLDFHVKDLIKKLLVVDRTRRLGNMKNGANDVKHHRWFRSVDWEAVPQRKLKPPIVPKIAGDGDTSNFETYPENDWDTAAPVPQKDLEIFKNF

[20] = molecular target: Serine/threonine-protein kinase OSR1 (Homo sapiens) (UniProt O95747); assay: Inhibition of OSR1 (unknown origin) assessed as remaining activity at 1 uM by Kinome scan method relative to control
[21] = molecular target: Serine/threonine-protein kinase MARK2 (Homo sapiens) (UniProt Q7KZI7); assay: Inhibition of human MARK2 assessed as residual activity at 1 uM using RBER-CHKtide as substrate in presence of 33P-ATP by ProQinase assay relative to control
[22] = molecular target: Dual specificity protein kinase CLK1 (Homo sapiens) (UniProt P49759); assay: Inhibition of CLK1 (unknown origin) assessed as remaining activity at 1 uM by Kinome scan method relative to control
Sequence of Dual specificity protein kinase CLK1 (Homo sapiens) (P49759 whole entry, looked up): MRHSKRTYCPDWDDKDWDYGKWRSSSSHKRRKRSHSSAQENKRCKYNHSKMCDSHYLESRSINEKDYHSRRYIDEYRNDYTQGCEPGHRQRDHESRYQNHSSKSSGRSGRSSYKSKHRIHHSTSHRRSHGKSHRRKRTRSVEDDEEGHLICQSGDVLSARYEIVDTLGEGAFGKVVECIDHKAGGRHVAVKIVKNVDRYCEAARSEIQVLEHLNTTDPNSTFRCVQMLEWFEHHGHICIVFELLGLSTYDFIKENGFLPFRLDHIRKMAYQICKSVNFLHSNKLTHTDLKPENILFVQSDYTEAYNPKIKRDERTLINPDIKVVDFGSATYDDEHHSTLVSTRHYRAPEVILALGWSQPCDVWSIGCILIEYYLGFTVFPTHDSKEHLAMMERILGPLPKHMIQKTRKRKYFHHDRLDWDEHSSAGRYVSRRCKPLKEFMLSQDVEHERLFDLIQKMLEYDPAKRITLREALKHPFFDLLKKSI

[23] = molecular target: Serine/threonine-protein kinase pim-2 (Homo sapiens) (UniProt Q9P1W9); assay: Inhibition of human PIM2 assessed as residual activity at 1 uM using RBER-GSK3(14-27) as substrate in presence of 33P-ATP by ProQinase assay relative to control
Sequence of Serine/threonine-protein kinase pim-2 (Homo sapiens) (Q9P1W9 whole entry, looked up): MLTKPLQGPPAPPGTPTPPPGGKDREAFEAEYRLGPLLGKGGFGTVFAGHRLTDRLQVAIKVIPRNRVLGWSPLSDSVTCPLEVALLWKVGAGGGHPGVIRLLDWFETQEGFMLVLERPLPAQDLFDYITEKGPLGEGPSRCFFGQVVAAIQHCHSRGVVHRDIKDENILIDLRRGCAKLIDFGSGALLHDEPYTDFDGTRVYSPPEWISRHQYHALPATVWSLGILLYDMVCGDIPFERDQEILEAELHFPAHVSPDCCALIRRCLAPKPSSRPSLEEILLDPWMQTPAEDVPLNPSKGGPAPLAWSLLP

Sequence of Serine/threonine-protein kinase SIK3 (Homo sapiens) (Q9Y2K2 whole entry, looked up): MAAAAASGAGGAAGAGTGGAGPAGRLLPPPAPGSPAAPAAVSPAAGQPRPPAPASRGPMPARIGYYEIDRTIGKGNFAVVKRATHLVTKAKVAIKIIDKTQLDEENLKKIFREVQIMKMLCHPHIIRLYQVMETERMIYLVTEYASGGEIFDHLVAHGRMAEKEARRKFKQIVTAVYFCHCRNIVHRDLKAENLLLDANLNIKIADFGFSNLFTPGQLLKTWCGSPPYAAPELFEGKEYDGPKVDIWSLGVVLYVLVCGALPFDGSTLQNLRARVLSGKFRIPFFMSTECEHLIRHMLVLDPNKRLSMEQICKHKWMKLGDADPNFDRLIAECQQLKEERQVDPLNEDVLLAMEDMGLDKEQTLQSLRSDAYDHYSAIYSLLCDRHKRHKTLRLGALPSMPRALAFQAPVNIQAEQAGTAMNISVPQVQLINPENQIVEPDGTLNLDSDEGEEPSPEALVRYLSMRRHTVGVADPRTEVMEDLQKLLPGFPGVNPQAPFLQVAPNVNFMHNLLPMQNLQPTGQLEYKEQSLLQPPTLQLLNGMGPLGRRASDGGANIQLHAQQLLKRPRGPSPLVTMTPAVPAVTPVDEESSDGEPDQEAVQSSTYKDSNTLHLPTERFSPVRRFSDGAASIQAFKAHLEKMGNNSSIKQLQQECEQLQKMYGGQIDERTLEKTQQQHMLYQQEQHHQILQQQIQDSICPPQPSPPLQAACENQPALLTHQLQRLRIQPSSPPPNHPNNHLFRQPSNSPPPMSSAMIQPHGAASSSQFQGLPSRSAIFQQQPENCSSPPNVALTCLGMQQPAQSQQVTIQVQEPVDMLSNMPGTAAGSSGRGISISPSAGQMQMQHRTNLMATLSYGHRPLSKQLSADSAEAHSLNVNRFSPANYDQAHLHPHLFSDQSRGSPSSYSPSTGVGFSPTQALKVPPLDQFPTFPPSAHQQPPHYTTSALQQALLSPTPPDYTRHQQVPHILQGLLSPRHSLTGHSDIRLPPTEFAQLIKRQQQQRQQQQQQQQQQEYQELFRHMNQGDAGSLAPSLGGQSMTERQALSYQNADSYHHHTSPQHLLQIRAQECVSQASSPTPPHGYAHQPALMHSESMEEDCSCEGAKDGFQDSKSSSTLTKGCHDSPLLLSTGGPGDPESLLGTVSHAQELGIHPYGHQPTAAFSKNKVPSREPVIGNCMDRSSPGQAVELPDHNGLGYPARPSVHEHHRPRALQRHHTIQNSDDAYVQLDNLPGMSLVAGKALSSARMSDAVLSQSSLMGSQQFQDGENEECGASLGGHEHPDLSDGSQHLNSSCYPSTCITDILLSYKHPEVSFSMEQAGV

O=C1c2ccc(Nc3ccc(F)cc3F)cc2CCc2ccc(OC[C@H](O)CO)cc21 [Skepinone-L]
Activity [1]: 100% | Activity [2]: 96% | Activity [3]: 100% | Activity [4]: 83% | Activity [5]: 102% | Activity [6]: 102% | Activity [7]: 100% | Activity [8]: 96% | IC50 [9]: 120 nM | Activity [10]: 100% | Activity [11]: 100% | Activity [12]: 100% | Activity [13]: 94% | Activity [14]: 99% | Activity [15]: 97% | Activity [16]: 100% | Activity [17]: 94% | IC50 [18]: Not Active | Activity [19]: 79% | Activity [20]: 100% | Activity [21]: 105% | Activity [22]: 99% | Activity [23]: 97%

From ChEMBL document CHEMBL5696441 (Nat Chem Biol, 2011)
